In paper PMC8236452, “Pharmacokinetics and safety of rucaparib in patients with advanced solid tumors and hepatic impairment” (Cancer Chemotherapy and Pharmacology, 2021):

Columns and labels:
[1] = Plasma pharmacokinetics after a single oral dose of rucaparib 600 mg in patients with advanced solid tumors, by hepatic function group; conditions: for AUC(0-t) / Cmax / Vd/F / half-life / Tmax: human, plasma, po, 600 mg, single oral rucaparib 600 mg; for AUC(0-t): AUC0–last; for Vd/F: Vz/F
Method: In Part 1, patients received a single oral dose of rucaparib 600 mg on day 1; PK samples were collected and safety monitored through day 7.
Sample collection, processing, and shipping were conducted according to standardized protocols shared across study sites. Plasma samples were collected for PK analysis at the predose assessment and at 1, 2, 3, 4, 8, 12, 24, 48, 72, 96, 120, and 144 h postdose. A predose urine sample was collected less than 12 h prior to study drug administration. Total urine was collected 0–12 h and 12–24 h postdose. Total (bound and unbound) concentrations of rucaparib and its metabolite M324 in plasma and urine samples were determined by Q Squared Solutions BioSciences (Ithaca, NY, USA) using validated liquid chromatography mass spectrometry/mass spectrometry methods. Stable deuterium-labeled analytes were used as internal standards. The assay calibration ranges for plasma samples were 5–10,000 ng/mL for rucaparib and 1–1000 ng/mL for M324 with lower limits of quantification (LLOQ) of 5.00 and 1.00 ng/mL, respectively. For urine samples, the calibration range was 500–50,000 ng/mL for both rucaparib and M324, with a LLOQ of 500 ng/mL for both analytes. The precision was within 9.3% CV, and the accuracy was within ± 6.2%.
PK parameters were estimated from the concentration–time profiles. Actual elapsed time after dosing was used to estimate plasma PK parameters based on noncompartmental methods using Phoenix® WinNonlin® version 8.1.0 (Certara USA, Inc., Princeton, NJ, USA). […] Exploratory PK parameters for M324 calculated based on plasma and urine concentration-time data were Cmax, AUC0–last, AUC0–inf, t1/2, tmax, Ae0–24, and CLR, as data allowed.
PK parameters were calculated by noncompartmental analysis, analyzed using descriptive statistics, and presented by hepatic functional status. Analysis of variance (ANOVA) was used to compare PK parameters (e.g., Cmax, AUC0–last, and AUC0–inf) between the normal hepatic function group and the moderate hepatic impairment group per NCI-ODWG criteria. PK values were log-transformed before analysis. Baseline covariates (e.g., creatinine clearance [CLcr], sex, age, BMI, and ECOG PS) were tested for any significant effect (P value < 0.05). Geometric least-squares means were used to calculate the ratios of the PK parameters in the hepatic impairment group to those in the control group, along with 90% confidence intervals (CIs). The Wilcoxon rank-sum test was used to compare tmax values between the two groups, and estimates of the median differences were determined, along with 90% CIs. In addition, the relationships between log-transformed PK parameters (AUC0–last, AUC0–inf, Cmax) for rucaparib and M324 and hepatic function parameters (bilirubin and aspartate aminotransferase [AST]) relevant to the classification of hepatic impairment according to NCI-ODWG were explored by a linear regression approach.

[2] = parameters: method as in PMID 29799676, PMID 31250355, PMID 28264872; conditions: 600 mg BID, cited from earlier work
[3] = cited from earlier work
[4] = tested on: patients; parameters: method as in PMID 28264872; conditions: dose escalation study; not reached; cited from earlier work
[5] = parameters: method as in PMID 32129697; conditions: in vitro; cited from earlier work
[6] = cited from earlier work; remark: listed apart in the source
[7] = GM, NCI-ODWG normal hepatic function
[8] = Mean (SD), Child–Pugh mild hepatic impairment
[9] = Mean (SD), Child–Pugh moderate hepatic impairment
[10] = Mean (SD), Child–Pugh severe hepatic impairment
[11] = Mean (SD), NCI-ODWG moderate hepatic impairment
[12] = Mean (SD), NCI-ODWG normal hepatic function
[13] = Median (min–max), Child–Pugh mild hepatic impairment
[14] = Median (min–max), Child–Pugh moderate hepatic impairment
[15] = Median (min–max), Child–Pugh severe hepatic impairment
[16] = Median (min–max), NCI-ODWG moderate hepatic impairment
[17] = Median (min–max), NCI-ODWG normal hepatic function
[18] = GM, Child–Pugh mild hepatic impairment
[19] = GM, Child–Pugh moderate hepatic impairment
[20] = GM, Child–Pugh severe hepatic impairment
[21] = GM, NCI-ODWG moderate hepatic impairment
[22] = linear regression of log-transformed PK parameter on hepatic function parameter (NCI-ODWG)
[23] = estimated with 36% absolute oral bioavailability

Q: What does the source list for `CNCc1ccc(-c2[nH]c3cc(F)cc4c3c2CCNC4=O)cc1` [rucaparib]?
A: AUC(0-t) [1, 7]: 13100 ng·h/mL; AUC(0-t) [1, 8]: 11600 ng·h/mL; AUC(0-t) [1, 9]: 24100 ng·h/mL; AUC(0-t) [1, 10]: 42200 ng·h/mL; AUC(0-t) [1, 11]: 25500 ng·h/mL; AUC(0-t) [1, 12]: 16200 ng·h/mL; AUC(0-t) [1, 13]: 8580 ng·h/mL; AUC(0-t) [1, 14]: 18400 ng·h/mL; AUC(0-t) [1, 15]: 42200 ng·h/mL; AUC(0-t) [1, 16]: 17800 ng·h/mL; AUC(0-t) [1, 17]: 17700 ng·h/mL; Cmax [1, 18]: 550 ng/mL; Cmax [1, 19]: 657 ng/mL; Cmax [1, 20]: 692 ng/mL; Cmax [1, 21]: 583 ng/mL; Cmax [1, 8]: 604 ng/mL; Cmax [1, 9]: 694 ng/mL; Cmax [1, 10]: 827 ng/mL; Cmax [1, 11]: 658 ng/mL; Cmax [1, 12]: 685 ng/mL; Cmax [1, 13]: 590 ng/mL; Cmax [1, 14]: 762 ng/mL; Cmax [1, 15]: 827 ng/mL; Cmax [1, 16]: 471 ng/mL; Cmax [1, 17]: 665 ng/mL; Vd/F [1, 18]: 2320 L; Vd/F [1, 19]: 1460 L; Vd/F [1, 20]: 1530 L; Vd/F [1, 21]: 1960 L; Vd/F [1, 7]: 1650 L; Vd/F [1, 8]: 3340 L; Vd/F [1, 9]: 1660 L; Vd/F [1, 10]: 2700 L; Vd/F [1, 11]: 2840 L; Vd/F [1, 12]: 2220 L; Vd/F [1, 13]: 2130 L; Vd/F [1, 14]: 1280 L; Vd/F [1, 15]: 2700 L; Vd/F [1, 16]: 2190 L; Vd/F [1, 17]: 1270 L; half-life ([1]; t1/2, GM, Child–Pugh mild hepatic impairment): 25.2 h; half-life ([1]; t1/2, GM, Child–Pugh moderate hepatic impairment): 42.6 h; half-life ([1]; t1/2, GM, Child–Pugh severe hepatic impairment): 47.8 h; half-life ([1]; t1/2, GM, NCI-ODWG moderate hepatic impairment): 45 h; half-life ([1]; t1/2, GM, NCI-ODWG normal hepatic function): 26.1 h; half-life ([1]; t1/2, Mean (SD), Child–Pugh mild hepatic impairment): 27.5 h; half-life ([1]; t1/2, Mean (SD), Child–Pugh moderate hepatic impairment): 44.8 h; half-life ([1]; t1/2, Mean (SD), Child–Pugh severe hepatic impairment): 47.8 h; half-life ([1]; t1/2, Mean (SD), NCI-ODWG moderate hepatic impairment): 46.7 h; half-life ([1]; t1/2, Mean (SD), NCI-ODWG normal hepatic function): 28.5 h; half-life ([1]; t1/2, Median (min–max), Child–Pugh mild hepatic impairment): 26.6 h; half-life ([1]; t1/2, Median (min–max), Child–Pugh moderate hepatic impairment): 49.9 h; half-life ([1]; t1/2, Median (min–max), Child–Pugh severe hepatic impairment): 47.8 h; half-life ([1]; t1/2, Median (min–max), NCI-ODWG moderate hepatic impairment): 49.3 h; half-life ([1]; t1/2, Median (min–max), NCI-ODWG normal hepatic function): 26.3 h; Tmax [1, 13]: 3.98 h; Tmax [1, 14]: 3.95 h; Tmax [1, 15]: 4.49 h; Tmax [1, 16]: 3.96 h; Tmax [1, 17]: 3.97 h; Slope estimate (90% CI), AUC0-inf vs AST [1, 22]: 0.001 (–0.002 to 0.004); Slope estimate (90% CI), AUC0-inf vs Bilirubin [1, 22]: 0.003 (–0.014 to 0.020); Slope estimate (90% CI), AUC0-last vs AST [1, 22]: 0.001 (–0.002 to 0.004); Slope estimate (90% CI), AUC0-last vs Bilirubin [1, 22]: 0.002 (–0.015 to 0.019); Slope estimate (90% CI), Cmax vs AST [1, 22]: 0 (–0.002 to 0.001); Slope estimate (90% CI), Cmax vs Bilirubin [1, 22]: –0.002 (–0.011 to 0.007); AUC0–12 h at steady state ([2]; 54% CV): 16900 h⋅ng/mL; mean steady-state maximum plasma concentration (Cmax,ss) ([2]; 54% CV): 1940 ng/mL; Median time to steady-state maximum concentration (tmax,ss) [2]: 6840 s; time to achieve steady state [2]: 1 week; plasma protein binding [3]: 70%; maximum tolerated dose [4]: > 840 mg BID; metabolic turnover rate [5]: low; hepatic elimination route, share of total clearance [6, 23]: ~ 70%; renal elimination route, share of total clearance [6, 23]: ~ 30%; mean terminal half-life (t1/2) ([6]; single oral dose of [14C]-rucaparib 600 mg): 25.9 h
